Source: patent US20250236608A1, “EGFR INHIBITORS” (Blueprint Medicines Corporation, priority 2022, published 2025)

Experiments:
[1] = system: EGFR mutant NSCLC; conditions: cited from earlier work; for objective response rate (ORR): EGFR M+ NSCLC patients treated first line (1 L)
[2] = target: EGFR (d746-750) (Homo sapiens (Human), UniProt P00533, DEL746-750); experiment: Biochemical EGFR inhibition assay, EGFR (d746-750); conditions: Caliper mobility shift; 1.0 mM ATP or ATP Km; read-out: Enz EGFR_Exon19-del746-750 IC50
[3] = target: pEGFR (Tyr1068) in PC-9 cells (Ex19Del) (Homo sapiens (Human), UniProt P00533, DEL746-750); experiment: PC-9 pEGFR AlphaLISA assay; type: cell-based; conditions: 4 hours incubation, p-EGFR (Tyr1068) AlphaLISA, read-out: Ext pEGFR_PC-9 Ex19Del IC50
Summary of the method: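 Cells seeded in phenol-free DMEM with 10% FBS adhered overnight at 37° C./5% CO2, then were exposed for 4 hours to a 4-fold, 10-point compound dilution series. After lysis, phospho-EGFR was read by AlphaLISA SureFire Ultra, and IC50 was fitted from percent inhibition versus log concentration.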

[4] = target: EGFR L858R (Homo sapiens (Human), UniProt P00533, L858R); experiment: Biochemical EGFR inhibition assay, EGFR L858R; conditions: Caliper mobility shift; 1.0 mM ATP or ATP Km; read-out: Enz EGFR_L858R IC50
Sequence of EGFR L858R (P00533 25-1210 L858R): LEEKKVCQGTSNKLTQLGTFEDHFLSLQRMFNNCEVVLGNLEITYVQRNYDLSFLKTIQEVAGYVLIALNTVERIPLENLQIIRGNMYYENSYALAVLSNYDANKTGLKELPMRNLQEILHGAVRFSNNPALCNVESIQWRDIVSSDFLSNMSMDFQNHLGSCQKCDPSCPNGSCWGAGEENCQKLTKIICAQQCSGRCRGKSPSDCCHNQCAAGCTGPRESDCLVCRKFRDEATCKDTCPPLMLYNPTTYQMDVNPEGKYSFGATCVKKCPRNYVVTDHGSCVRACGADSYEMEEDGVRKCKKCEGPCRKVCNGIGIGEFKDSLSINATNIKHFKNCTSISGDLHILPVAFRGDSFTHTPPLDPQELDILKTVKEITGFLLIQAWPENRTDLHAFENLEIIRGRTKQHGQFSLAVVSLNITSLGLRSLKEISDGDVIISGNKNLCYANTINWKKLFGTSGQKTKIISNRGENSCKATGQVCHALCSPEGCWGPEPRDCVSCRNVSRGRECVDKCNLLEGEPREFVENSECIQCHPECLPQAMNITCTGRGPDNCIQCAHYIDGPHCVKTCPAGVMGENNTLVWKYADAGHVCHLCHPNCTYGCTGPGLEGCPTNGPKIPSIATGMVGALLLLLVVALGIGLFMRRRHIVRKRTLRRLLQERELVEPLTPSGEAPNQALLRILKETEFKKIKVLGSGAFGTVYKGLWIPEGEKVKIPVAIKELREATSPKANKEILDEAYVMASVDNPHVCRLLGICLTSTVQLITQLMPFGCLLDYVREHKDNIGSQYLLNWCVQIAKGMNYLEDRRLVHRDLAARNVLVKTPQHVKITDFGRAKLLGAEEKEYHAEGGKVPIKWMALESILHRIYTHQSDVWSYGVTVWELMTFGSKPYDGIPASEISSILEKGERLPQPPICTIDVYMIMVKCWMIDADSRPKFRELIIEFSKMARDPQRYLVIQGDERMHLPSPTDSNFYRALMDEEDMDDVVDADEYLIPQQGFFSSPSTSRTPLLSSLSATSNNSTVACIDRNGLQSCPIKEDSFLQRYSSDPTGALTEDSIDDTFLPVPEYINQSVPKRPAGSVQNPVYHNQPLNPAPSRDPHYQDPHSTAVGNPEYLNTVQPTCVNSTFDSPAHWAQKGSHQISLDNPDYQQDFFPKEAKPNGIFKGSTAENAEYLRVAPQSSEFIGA

Sequence of pEGFR (Tyr1068) in PC-9 cells (Ex19Del) (P00533 other isoform, or with tags, fused parts or gaps del 746-750): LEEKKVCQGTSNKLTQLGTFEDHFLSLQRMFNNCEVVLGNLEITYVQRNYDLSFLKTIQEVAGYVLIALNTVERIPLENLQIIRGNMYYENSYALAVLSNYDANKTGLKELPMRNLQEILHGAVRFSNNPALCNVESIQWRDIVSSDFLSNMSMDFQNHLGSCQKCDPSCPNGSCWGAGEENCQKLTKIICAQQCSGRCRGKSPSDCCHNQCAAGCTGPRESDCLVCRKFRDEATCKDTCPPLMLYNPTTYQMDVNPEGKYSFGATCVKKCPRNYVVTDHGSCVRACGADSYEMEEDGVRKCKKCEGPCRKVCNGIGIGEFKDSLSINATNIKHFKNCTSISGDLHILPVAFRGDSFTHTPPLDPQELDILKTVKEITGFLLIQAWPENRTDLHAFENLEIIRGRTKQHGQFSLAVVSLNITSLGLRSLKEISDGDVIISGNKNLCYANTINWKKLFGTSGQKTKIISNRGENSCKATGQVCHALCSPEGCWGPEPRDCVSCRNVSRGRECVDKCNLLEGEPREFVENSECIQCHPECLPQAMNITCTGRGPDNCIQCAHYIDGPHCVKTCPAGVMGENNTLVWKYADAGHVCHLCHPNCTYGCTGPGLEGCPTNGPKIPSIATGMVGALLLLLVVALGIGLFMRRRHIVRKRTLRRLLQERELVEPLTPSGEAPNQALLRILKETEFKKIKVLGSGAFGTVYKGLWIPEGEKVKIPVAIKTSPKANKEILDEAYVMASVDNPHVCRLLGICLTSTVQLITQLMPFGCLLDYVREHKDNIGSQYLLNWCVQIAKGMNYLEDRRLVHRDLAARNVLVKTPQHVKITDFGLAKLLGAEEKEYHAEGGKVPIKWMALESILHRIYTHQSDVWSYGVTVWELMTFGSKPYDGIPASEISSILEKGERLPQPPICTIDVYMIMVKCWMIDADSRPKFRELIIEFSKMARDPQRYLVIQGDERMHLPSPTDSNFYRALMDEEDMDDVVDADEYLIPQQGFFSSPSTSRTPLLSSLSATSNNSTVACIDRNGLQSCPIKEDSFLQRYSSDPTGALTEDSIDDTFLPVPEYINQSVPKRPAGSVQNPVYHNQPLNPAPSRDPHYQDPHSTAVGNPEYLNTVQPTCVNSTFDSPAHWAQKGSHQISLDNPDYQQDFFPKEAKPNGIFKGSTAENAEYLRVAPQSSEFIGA
Sequence of EGFR (d746-750) (P00533 other isoform, or with tags, fused parts or gaps del 1-694/del 746-750 limits assumed): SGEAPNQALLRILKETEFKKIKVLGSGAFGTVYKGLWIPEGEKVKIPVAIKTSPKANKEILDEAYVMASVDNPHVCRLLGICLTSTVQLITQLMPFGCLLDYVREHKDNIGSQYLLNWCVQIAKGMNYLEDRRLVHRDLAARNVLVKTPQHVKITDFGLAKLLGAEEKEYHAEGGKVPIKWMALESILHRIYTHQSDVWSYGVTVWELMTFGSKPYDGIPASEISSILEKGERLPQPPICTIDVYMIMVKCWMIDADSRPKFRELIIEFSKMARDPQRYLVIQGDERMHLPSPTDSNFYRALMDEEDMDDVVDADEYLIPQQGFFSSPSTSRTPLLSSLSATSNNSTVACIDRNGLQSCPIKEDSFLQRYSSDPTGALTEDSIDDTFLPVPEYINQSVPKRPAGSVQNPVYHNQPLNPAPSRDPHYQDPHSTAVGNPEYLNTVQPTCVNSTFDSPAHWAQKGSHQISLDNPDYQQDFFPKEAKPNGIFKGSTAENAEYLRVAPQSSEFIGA

IC50 [2] [nM] | IC50 [3] [nM] | IC50 [4] [nM] | SMILES | objective response rate (ORR) [1] | progression-free survival (PFS) ([1]; first line, NSCLC harboring del 19 and L858R mutations) [mo]
– | – | – | C=CC(=O)Nc1cc(Nc2nccc(-c3cn(C)c4ccccc34)n2)c(OC)cc1N(C)CCN(C)C [osimertinib] | 60-85% | 18.9
– | – | – | C#Cc1cccc(Nc2ncnc3cc(OCCOC)c(OCCOC)cc23)c1 [erlotinib] | 60-85% | –
4.5 | 23.8 | 26 | Cn1cc(-c2ncnc3cc(OC(F)F)c(NC(=O)c4ccc(C5CC5)nc4)nc23)c(-c2ccccc2)n1 [Example 470, 6-cyclopropyl-N-[7-(difluoromethoxy)-4-(1-methyl-3-phenyl-1H-pyrazol-4-yl)pyrido[3,2-d]pyrimidin-6-yl]pyridine-3-carboxamide] | – | –
1 | 0.9 | 1.4 | CCC(=O)Nc1cc2c(-c3cn(CC(F)F)nc3-c3ccccc3)ncnc2cc1OC [Example 250, N-(4-(1-(2,2-difluoroethyl)-3-phenyl-1H-pyrazol-4-yl)-7-methoxyquinazolin-6-yl)propionamide] | – | –
1.2 | 3.6 | 4.4 | [2H]C([2H])([2H])n1cc(-c2ncnc3cc(OC)c(NC(=O)C45CC(N(C)C)(C4)C5)nc23)c(-c2ccccc2)n1 [Example 494] | – | –
0.7 | 2.5 | 1.4 | CCOc1cc2ncnc(-c3cn(C4CC4)nc3-c3ccccc3)c2cc1[C@@H](C)O (single isomer, unassigned) [Example 111, (R)-1-(4-(1-cyclopropyl-3-phenyl-1H-pyrazol-4-yl)-7-ethoxyquinazolin-6-yl)ethan-1-ol or (S)-1-(4-(1-cyclopropyl-3-phenyl-1H-pyrazol-4-yl)-7-ethoxyquinazolin-6-yl)ethan-1-ol] | – | –
0.9 | 1.5 | 1.5 | COc1cc2ncnc(-c3cn(C)nc3-c3ccccc3)c2cc1NC(=O)c1ccc(F)cc1 [Example 222, 4-fluoro-N-(7-methoxy-4-(1-methyl-3-phenyl-1H-pyrazol-4-yl)quinazolin-6-yl)benzamide] | – | –
0.7 | 1 | 1.2 | CCC(=O)Nc1cc2c(-c3cn(C)nc3-c3ccccc3)ncnc2cc1-n1ccc(C)n1 [Example 450, N-(7-(3-methyl-1H-pyrazol-1-yl)-4-(1-methyl-3-phenyl-1H-pyrazol-4-yl)quinazolin-6-yl)propionamide] | – | –
1.9 | 7.6 | 7.1 | COc1cc2ncnc(-c3cn(C)nc3-c3ccccc3)c2cc1-c1cccc2c1cnn2C [Example 141, 7-methoxy-6-(1-methyl-1H-indazol-4-yl)-4-(1-methyl-3-phenyl-1H-pyrazol-4-yl)quinazoline] | – | –
1.7 | 2.5 | 2.9 | COc1cc2ncnc(-c3cn(C)nc3-c3ccccc3)c2cc1-c1cnn(CCN(C)C)c1 [Example 233, 2-(4-(7-methoxy-4-(1-methyl-3-phenyl-1H-pyrazol-4-yl)quinazolin-6-yl)-1H-pyrazol-1-yl)-N,N-dimethylethan-1-amine] | – | –
2.2 | 4.7 | 3.8 | CCOc1cc2ncnc(-c3cn(C(C)C)nc3-c3ccccc3)c2cc1[C@@H](C)O (single isomer, unassigned) [Example 109, (R)-1-(7-ethoxy-4-(1-isopropyl-3-phenyl-1H-pyrazol-4-yl)quinazolin-6-yl)ethan-1-ol or (S)-1-(7-ethoxy-4-(1-isopropyl-3-phenyl-1H-pyrazol-4-yl)quinazolin-6-yl)ethan-1-ol] | – | –
1.1 | 2.7 | 4.3 | COc1cc2ncnc(-c3cn(C)nc3-c3ccccc3)c2cc1[C@H]1CN(C)CCO1 (single isomer, unassigned) [Example 129, (S)-2-(7-methoxy-4-(1-methyl-3-phenyl-1H-pyrazol-4-yl)quinazolin-6-yl)-4-methylmorpholine or (R)-2-(7-methoxy-4-(1-methyl-3-phenyl-1H-pyrazol-4-yl)quinazolin-6-yl)-4-methylmorpholine] | – | –
2.7 | 5.3 | 5.2 | COc1cc2ncnc(-c3cn(C)nc3-c3ccccc3)c2cc1NC(=O)c1cncc(C)c1 [Example 321, N-(7-methoxy-4-(1-methyl-3-phenyl-1H-pyrazol-4-yl)quinazolin-6-yl)-5-methylnicotinamide] | – | –
0.8 | 1.7 | 2 | CCn1cc(-c2ncnc3cc(OC)c(NC(=O)C45CC(N(C)C)(C4)C5)nc23)c(-c2ccc(F)cc2)n1 [Example 405, 3-(dimethylamino)-N-(4-(1-ethyl-3-(4-fluorophenyl)-1H-pyrazol-4-yl)-7-methoxypyrido[3,2-d]pyrimidin-6-yl)bicyclo[1.1.1]pentane-1-carboxamide] | – | –
2 | 0.8 | 2.7 | CCCn1cc(-c2ncnc3cc(OC)c(NC(=O)c4ccc(C5CC5)nc4)cc23)c(-c2ccccc2)n1 [Example 301, 6-cyclopropyl-N-(7-methoxy-4-(3-phenyl-1-propyl-1H-pyrazol-4-yl)quinazolin-6-yl)nicotinamide] | – | –
3.4 | 4.5 | 4.8 | CCOc1cc2ncnc(-c3cn(C)nc3-c3ccccc3)c2cc1OC1CCNCC1 [Example 8, 7-ethoxy-4-(1-methyl-3-phenyl-1H-pyrazol-4-yl)-6-(piperidin-4-yloxy)quinazoline] | – | –
0.8 | 1.1 | 1.3 | COc1cc2ncnc(-c3cn(C)nc3-c3ccccc3)c2cc1NC(=O)c1ccccc1F [Example 198, 2-fluoro-N-(7-methoxy-4-(1-methyl-3-phenyl-1H-pyrazol-4-yl)quinazolin-6-yl)benzamide] | – | –
1.8 | 4.2 | 4.2 | COc1cc2ncnc(-c3cn(C)nc3-c3ccccc3)c2cc1O[C@@H]1CCN(C)C[C@H]1F [Example 1, 6-(((3R,4R)-3-fluoro-1-methylpiperidin-4-yl)oxy)-7-methoxy-4-(1-methyl-3-phenyl-1H-pyrazol-4-yl)quinazoline] | – | –
1.2 | 0.6 | 2.4 | COc1cc2ncnc(-c3cn(C)nc3-c3ccccc3)c2cc1NC(=O)C1CCC1 [Example 347, N-(7-methoxy-4-(1-methyl-3-phenyl-1H-pyrazol-4-yl)quinazolin-6-yl)cyclobutanecarboxamide] | – | –

SMILES | IC50 [2] [nM] | IC50 [3] [nM] | IC50 [4] [nM] | objective response rate (ORR) [1] | progression-free survival (PFS) ([1]; first line, NSCLC harboring del 19 and L858R mutations) [mo]
COc1cc2ncnc(-c3cn(C)nc3-c3ccccc3)c2cc1OC(=O)N1CCN(C)[C@H]2C[C@H]21 (racemic) [Example 82, Cis-rac-7-methoxy-4-(1-methyl-3-phenyl-1H-pyrazol-4-yl)quinazolin-6-yl (1R,6S)-5-methyl-2,5-diazabicyclo[4.1.0]heptane-2-carboxylate] | 3.3 | 3.9 | 5.3 | – | –
